# Measured values reported in patent EP0104596A2, “Furoindole derivatives” (TAISHO PHARMACEUTICAL CO. LTD, priority 1982, dated 1984).
# What was measured:
# Format in all cases: in vivo
# [1] = system: male rats of Wistar strain; test: Acute oral toxicity (lethality) in rats; details: 10 male Wistar rats
# male Wistar rats = test: Randall & Selitto method (analgesic effect, brewer's yeast inflamed paw); details: Rattus norvegicus, po, 2 hours after subplantar 20 % brewer's yeast, pain threshold every 1 hour for 4 hours, read-out: Analgesic action (ED50) Randall & Selitto method
# Description: (3) Randall & Selitto Method [Randall and Selitto: Arch. Int. Pharmacodyn. 111, 409(1957)]
# 6 male Wistar rats weighing 90 - 110 g were used in testing each compound. The pain threshold was measured with an analgesic meter (Ugo Basile). The test compounds were adminstered orally 2 hours after the subplantar injection(0.1 ml/rat) of 20 % brewer's yeast suspension into the right hind paw, and the pain threshold was measured every 1 hour for 4 hours.
# Animals of which post-drug pain threshold raised more than 50 % as compared with the threshold in control group were regarded as positive for the analgesic activity, and the ED50 values were calculated from the positive percent.
# male S.D. rats = test: Adjuvant-induced arthritic pain (analgesic effect); details: Rattus norvegicus, po, Mycobacterium butyricum polyarthritis, pain response every 1 hour for 5 hours, read-out: Analgesic action (ED50) Adjuvant-induced arthritic pain method
# Description: (4) Adjuvant-induced Arthritic Pain [Kuzuna and Kawai: Chem. Pha^rm. Bull., ^23, 1184(1975)]
# 6 male S.D. rats weighing 160 - 200 g were used in testing each compound. Polyarthritis was induced by the intradermal injection (0.1 ml/rat) of 0.5 % Mycobacterium butyricum suspension into the distal portion of the tail. The pain stimulus was applied by a gentle flection of the right tarso-tibial joints repeatedly 5 times at intervals 4 to 5 seconds, the vocalization following the pain stimulus was regarded as pain response.
# male ddY mice [2] = test: Acetic acid writhing method (analgesic effect); details: Mus musculus, po, 30 minutes before i.p. 0.7 % acetic acid, writhes counted 10 to 20 minutes after injection, read-out: Analgesic action (ED50) Acetic acid writhing method
# Description: (1) Acetic Acid Writhing Method [Koster, Anderson and De Beer: Fed. Proc., 18, 412(1959)]
# 10 male ddY mice weighing 19 - 23 g were used in testing each compound. The test compounds were administered orally 30 minutes before in the intraperitoneal injection (0.1 ml/ 10 g ) of 0.7 % acetic acid. The number of writhes were counted in each mouse during a period spanning 10 to 20 minutes after the acetic acid injection.
# The percent inhibition was calculated as compared with the number of writhes in the control group, and the ED50 values were calculated from the inhibitory percent.
# male ddY mice [3] = test: Tail pressure method (analgesic effect); details: Mus musculus, po, pain threshold raised more than 50 % = positive, measured every 30 minutes for 120 minutes, read-out: Analgesic action (ED50) Tail pressure method
# Description: (2) Tail Pressure Method [Takagi and Kameyama: Yakugaku Zasshi, 78, 553(1958)]
# 10 male ddY mice weighing 20 - 25 g were used in testing each compound. The pressure stimulus was applied to the base of the mouse tail. The test compounds were administered orally and the pain threshold was measured every 30 minutes for 120 minutes.
# Animals of which post-drug pain threshold raised more than 50 % as compared with its pre-drug threshold were regarded as positive for the analgesic activity, and the ED50 values were calculated from the positive percent.
compound,measurement,setting,value
"CCCCC(CC)C(=O)n1c2cc(C(F)(F)F)ccc2c2oc(C(=O)N3CCOCC3)cc21 (stereo not shown) [Example 1, 4-(2-ethylhexanoyl)-2-morpholinocarbonyl-6-trifluoromethyl-furo-[3,2-b]-indole]",death,[1]; 1000 mg/kg orally,no death was observed
"CC(C)OC(=O)n1c2cc(C(F)(F)F)ccc2c2oc(C(=O)N3CCOCC3)cc21 [Example 2, 4-isopropoxycarbonyl-2-morpholinocarbonyl-6-trifluoromethyl-furo-[3,2-b]indole]",death,[1]; 1000 mg/kg orally,no death was observed
"CC(C)CC(=O)n1c2cc(C(F)(F)F)ccc2c2oc(C(=O)N3CCOCC3)cc21 [Example 3, 4-isobutylcarbonyl-2-morpholinocarbonyl-6-trifluoromethyl-furo[3,2-b]indole]",death,[1]; 2000 mg/kg orally,no death was observed
"O=C(c1cc2[nH]c3cc(C(F)(F)F)ccc3c2o1)N1CCOCC1 [R: -H, 2-morpholinocarbonyl-6-trifluoromethyl-4H-furo[3,2-b]indole]",ED50,male Wistar rats,> 100 mg/kg
same,ED50,male S.D. rats,> 100 mg/kg
same,ED50,male ddY mice [2],> 100 mg/kg
same,ED50,male ddY mice [3],> 100 mg/kg
